# “Also recorded” adds a separate entry of the source. Structures can show the parent of a compound that is named as a salt.
# Legend:
# [1] = system: CYP2A6 (tranylcypromine), CYP2E1 (diethyldithiocarbamate); CYP-mediated 5-FU formation from R-FT; test: Effects of CYP-selective inhibitors on 5-FU formation from FT enantiomers in pooled human hepatic microsomes; format: in vitro ADME; details: human, pooled human liver microsomes, pH 7.4, probe R-FT (R-tegafur) 30 μmol/L, 5-FU formation
# Procedure: (§1) Metabolic reaction by S9 and cytosol (each 2 mg protein/mL) was carried out in 100 mmol/L phosphate (pH 7.4) because TPase requires phosphate ions for catalyzing the reaction. In some cases, insect microsomes expressing recombinant CYP isoforms (20 pmol/mL) were added to the incubation mixtures in either 50, 100 mmol/L phosphate (pH 7.4) or 100 mmol/L Tris (pH 7.4), depending on supplier's recommendation. Microsomal protein concentrations of all cDNA-expressed CYPs were adjusted to 0.5 mg protein/mL by adding control microsomes expressing NADPH-P450 oxidoreductase and cytochrome b5. The reaction for the assay of FT metabolism was initiated by adding the substrate, following preincubation for 5 min at 37°C. After incubation at 37°C, the reaction was stopped by adding three volumes of ice-cold acetonitrile. The incubation times of microsomes, cytosol, and S9 were 15, 15, and 30 min, respectively. After centrifugation, the supernatant was collected and stored at −80°C until the determination of 5-FU. Because a small portion of FT is nonenzymatically converted to 5-FU, the content of 5-FU spontaneously formed was subtracted from total yield obtained after incubation to correct the activity. The spontaneous degradation of FT to 5-FU was evaluated using enzymes inactivated by heating them at 100°C for 5 min.
# (§2) The effects of inhibitors of CYP isoforms and TPase, and anti-CYP antibodies on 5-FU formation from FT enantiomers catalyzed by human hepatic preparations were evaluated. In inhibition assays, FT enantiomers were used at the concentrations of 30 μmol/L. 1-Aminobenzotriazole (1 mmol/L) and TPI (10 μmol/L) were used as nonselective inhibitors of CYP isoforms and TPase, respectively. […] Inhibitors were dissolved in methanol and diluted with 100 mmol/L phosphate (pH 7.4) or 100 mmol/L Tris (pH 7.4) so that the final concentration of solvent in the incubation mixture was 0.5%. Methanol was also added to the control at the same concentration as the conditions with inhibitors. Inhibitory effects of anti-CYP antibodies were examined by preincubating microsomes with the antibodies for 10 min on ice. Each polyclonal anti-CYP antibody was used at a concentration ranging 10–40 μL/mg microsomal protein according to the procedure recommended by the supplier. The reaction was performed similarly as described above, except for evaluating the inhibitory effect of furafylline.
# (§3) Concentration of 5-FU was determined using a LC/MS/MS system. The analytical system consisted of a HP1100 liquid chromatograph (Agilent Technologies, CA) coupled with an API4000 triple-quadrupole mass spectrometer (Applied Biosystems, CA) equipped with Turbo V source and ESI interface. Sample separation was performed using an Unison UK-Amino column (2.0 mm i.d. × 100 mm, 3 μm; Imtakt, Kyoto, Japan) at a flow rate of 0.2 mL/min at 40°C. The mobile phase consisted of 10 mmol/L ammonium acetate/acetonitrile 10:90 (v/v). […] For quantification of 5-FU, the calibration curves were linear over the range 2–1000 ng/mL.
# (§4) For evaluating the effect of furafylline, the preincubation of microsomes with an inhibitor and an NADPH-generating system for 20 min was performed, followed by the enantioselective metabolic reaction. Opened and closed bars represent 5-FU formation rate from R- and S-FT, respectively.
# [2] = system: CYP2A6 (tranylcypromine), CYP2E1 (diethyldithiocarbamate); CYP-mediated 5-FU formation from S-FT; test: as above; format: in vitro ADME; details: human, pooled human liver microsomes, pH 7.4, probe S-FT (S-tegafur) 30 μmol/L, 5-FU formation
# Procedure: as §1, §2, §3, §4
# [3] = as above; format: in vitro ADME; details: pooled human hepatic microsomes; for effect on 5-FU formation from R-FT (in words): furafylline 25, quinidine 1, ketoconazole 1 μmol/L; for effect on 5-FU formation from S-FT (in words): furafylline 25, ticlopidine 20, quinidine 1, ketoconazole 1 μmol/L
# Procedure: as §1, §2, §3, §4
# [4] = Enantioselective conversion of FT to 5-FU in human hepatic S9 with CYP and TPase inhibitors; format: in vitro ADME; details: FT enantiomer 0.1 mmol/L, 1-aminobenzotriazole 1 mmol/L, TPI 10 μmol/L
# Procedure: Insect microsomes expressing only NADPH-P450 oxidoreductase and cytochrome b5 were also used as control. These enzymes were stored at −80°C until use.
# as §1
# as §2, with “In inhibition assays, FT enantiomers were used at the concentrations of 30 μmol/L.” left out
# (§5) Concentration of 5-FU was determined using a LC/MS/MS system. […] For quantification of 5-FU, the calibration curves were linear over the range 2–1000 ng/mL. […]
# [5] = system: recombinant human CYP2B6, 2C8, 2C9, 2D6, and 3A4; test: 5-FU formation from FT enantiomers by other cDNA-expressed CYP isoforms; format: in vitro ADME; details: other isoforms than CYP1A2, 2A6, 2C19, 2E1; FT enantiomers 0.03 mmol/L; 20 pmol CYP/mL
# Procedure: (pooled preparations from 20 donors; Kansas City, KS). […] Insect microsomes expressing only NADPH-P450 oxidoreductase and cytochrome b5 were also used as control. These enzymes were stored at −80°C until use.
# 5-FU formed from FT was subjected to extensive metabolism by dihydropyrimidine dehydrogenase (DPD) contaminating human hepatic preparations. Therefore, a potent DPD inhibitor, CDHP, was always added to avoid the unexpected loss of 5-FU (Ikeda et al. [2000]; Yamamiya et al. [2010]). Incubation mixture for hepatic microsomal metabolism contained FT, microsomes (1 mg protein/mL), 0.1 mmol/L CDHP, and an NADPH-generating system consisting of 1.3 mmol/L β-NADP^+, 3.3 mmol/L glucose-6-phosphate, 3.3 mmol/L magnesium chloride, and 0.4 units glucose-6-phosphate dehydrogenase in 100 mmol/L Tris (pH 7.4). Metabolic reaction by S9 and cytosol (each 2 mg protein/mL) was carried out in 100 mmol/L phosphate (pH 7.4) because TPase requires phosphate ions for catalyzing the reaction. […] The spontaneous degradation of FT to 5-FU was evaluated using enzymes inactivated by heating them at 100°C for 5 min.
# as §5
# [6] = design: method as in Damle et al. [2001]; details: after oral administration; ref Damle et al. [2001]; cited from earlier work
# CYP2A6 = biological target: T1, CYP2A6 (Homo sapiens, UniProt P11509); test: 5-FU formation from FT enantiomers by cDNA-expressed CYP2A6 (kinetics, velocity, RAF contribution); details: CYP2A6; RAF method; 30 μmol/L
# T1 sequence (P11509 1-494): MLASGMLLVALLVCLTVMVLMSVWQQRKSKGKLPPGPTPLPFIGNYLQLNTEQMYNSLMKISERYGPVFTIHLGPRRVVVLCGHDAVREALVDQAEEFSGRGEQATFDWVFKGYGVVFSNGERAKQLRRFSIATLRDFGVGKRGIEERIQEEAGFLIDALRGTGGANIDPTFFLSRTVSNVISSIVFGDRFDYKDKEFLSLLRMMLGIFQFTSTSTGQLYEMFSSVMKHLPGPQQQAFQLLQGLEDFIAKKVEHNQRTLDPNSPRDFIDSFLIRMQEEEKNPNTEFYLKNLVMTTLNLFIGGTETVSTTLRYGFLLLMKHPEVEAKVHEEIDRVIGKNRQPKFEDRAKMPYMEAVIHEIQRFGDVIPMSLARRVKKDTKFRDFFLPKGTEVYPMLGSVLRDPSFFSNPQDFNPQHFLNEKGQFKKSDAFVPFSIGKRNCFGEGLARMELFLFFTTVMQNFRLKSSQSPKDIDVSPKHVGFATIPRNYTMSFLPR
# Text: Human hepatic 9000g supernatant (S9) and cytosolic fraction were purchased from XenoTech, LLC. (pooled preparations from 20 donors; Kansas City, KS). Human hepatic microsomes from five individuals (HG32, HH94, HH81, HH74, and HH31), a pooled preparation from 150 donors, and microsomes prepared from insect cell lines expressing CYP1A2, 2A6, 2B6, 2C8, 2C9, 2C19, 2D6, 2E1, and 3A4 were purchased from BD Gentest. Insect microsomes expressing only NADPH-P450 oxidoreductase and cytochrome b5 were also used as control. These enzymes were stored at −80°C until use.
# as §1, §3
# Kinetic studies were performed using microsomes from five human livers (HG32, HH94, HH81, HH74, and HH31), cDNA-expressed CYP isoforms, or pooled human hepatic cytosol. In determining kinetic parameters, FT concentration ranged from 0.03 to 10 mmol/L. All reactions were performed in a linear range of 5-FU formation with respect to protein or CYP concentrations and incubation time.
# Intrinsic clearance (CLint) was calculated as a ratio of V/S where V and S were the metabolite formation rate and the concentration of a probe substrate for CYP isoform, respectively, when the substrate concentration was well below the Km value. The RAF for each CYP isoform was calculated according to equation (3) (Venkatakrishnan et al. [2000]). [drawing 3] (3) n = 1A2, 2A6, 2C19, or 2E1.
# The contribution of CYPn to the metabolism of R- and S-FT at their concentration of 30 μmol/L was subsequently calculated using equation (4). [drawing 4] (4) VCYPn = 5-FU formation rate in cDNA-expressed CYPn.
compound,measurement,setting,value
"N[C@@H]1C[C@H]1c1ccccc1 (racemic) [tranylcypromine, tranylcypromine hydrochloride]",inhibition at 15 min,"[1]; pooled human hepatic microsomes, R-FT 30 μmol/L, tranylcypromine 5 μmol/L, diethyldithiocarbamate 100 μmol/L",~90%
same,inhibition at 15 min,"[2]; pooled human hepatic microsomes, S-FT 30 μmol/L, tranylcypromine 5 μmol/L, diethyldithiocarbamate 100 μmol/L",~90%
CC(=O)N1CCN(c2ccc(OCC3COC(Cn4ccnc4)(c4ccc(Cl)cc4Cl)O3)cc2)CC1 (centres unmarked) [ketoconazole],effect on 5-FU formation from R-FT (in words),[3]; R-FT 30 μmol/L,no effect
same,effect on 5-FU formation from S-FT (in words),[3]; S-FT 30 μmol/L,no effect
"Cl.N=C1CCCN1Cc1[nH]c(=O)[nH]c(=O)c1Cl [TPI, 5-chloro-6-(2-iminopyrrolidin-1-yl) methyl-2, 4 (1H,3H)-pyrimidinedione hydrochloride]",effect on 5-FU formation from R-FT (in words),[4],only a minor effect; also recorded: only a slight effect
same,effect on 5-FU formation from S-FT (in words),[4],only a minor effect; also recorded: not observed
"O=c1[nH]c(=O)n(C2CCCO2)cc1F (centres unmarked) [FT, 5-fluoro-1-(2-tetrahydrofuryl)-2, 4 (1H, 3H)-pyrimidinedione, reference compound]",activity for the enantioselective metabolism of FT (in words),[5],negligible activity
same,oral bioavailability,[6],approximately 100%
same,CYP contribution,CYP2A6,over 85%
"CCN(CC)C(=S)S [diethyldithiocarbamate, sodium diethyldithiocarbamate]",inhibition at 15 min,[1],27%
same,"amount of 5-FU formed from R-FT, % of the control value","[3]; R-FT 30 μmol/L, diethyldithiocarbamate 100 μmol/L",73 % of the control value
same,"amount of 5-FU formed from S-FT, % of the control value","[3]; S-FT 30 μmol/L, diethyldithiocarbamate 100 μmol/L",64 % of the control value
same,inhibition at 15 min,[2],34%
"Nn1nnc2ccccc21 [1-aminobenzotriazole, 1-Aminobenzotriazole]",effect on 5-FU formation from R-FT (in words),[4],markedly reduced; also recorded: strong inhibitory effect
same,effect on 5-FU formation from S-FT (in words),[4],markedly reduced; also recorded: strong inhibitory effect
Cc1nc2c([nH]1)c(=O)n(C)c(=O)n2Cc1ccco1 [furafylline],effect on 5-FU formation from R-FT (in words),[3]; R-FT 30 μmol/L,no effect
same,effect on 5-FU formation from S-FT (in words),[3]; S-FT 30 μmol/L,no effect

# Source: paper PMC4184574, “Enantioselectivity in the cytochrome P450-dependent conversion of tegafur to 5-fluorouracil in human liver microsomes” (Pharmacology Research & Perspectives, 2013)
